Measured values taken from patent US11051515B2, “3-acyl-benzamides and their use as herbicides” (Bayer Aktiengesellschaft, priority 2017, dated 2021).

Key:
[1] = test system: STEME; test: Pre-emergence action against STEME; format: in vivo, Stellaria media; details: Dosage 320 g/ha, pre-emergence
Summary of the method: (§1)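 Seeds sown in sandy loam in wood-fiber pots and covered with soil. Greenhouse growth; visual damage scored after 3 weeks versus untreated controls (100% = dead, 0% = like control).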

[2] = test system: MATIN; test: Post-emergence action against MATIN; format: in vivo, Matricaria inodora; details: post-emergence, dosage 80 g/ha, visual assessment about 3 weeks after treatment vs untreated controls
Summary of the method: (§2)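 Post-emergence foliar spray on greenhouse plants at the one-leaf stage, using wettable-powder or emulsion-concentrate formulations in water (600 to […], plus 0.2% wetting agent). Damage scored by eye roughly 3 weeks later against untreated plants: 0% = like control, 100% = dead.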

[3] = test system: MATIN; test: Pre-emergence action against MATIN; format: in vivo, Matricaria inodora; details: Dosage 320 g/ha, pre-emergence
Summary of the method: as §1

[4] = test system: ABUTH; test: Post-emergence action against ABUTH; format: in vivo, Abutilon theophrasti; details: post-emergence, dosage 80 g/ha, visual assessment about 3 weeks after treatment vs untreated controls
Summary of the method: as §2

[5] = test system: ABUTH; test: Pre-emergence action against ABUTH; format: in vivo, Abutilon theophrasti; details: pre-emergence, dosage 320 g/ha, scored visually after 3 weeks vs untreated controls
Summary of the method: as §1

[6] = test system: ECHCG; test: Pre-emergence action against ECHCG; format: in vivo, Echinochloa crus-galli; details: pre-emergence, dosage 320 g/ha, scored visually after 3 weeks vs untreated controls
Summary of the method: as §1

[7] = test system: VERPE; test: Post-emergence action against VERPE; format: in vivo, Veronica persica; details: dosage 80 g/ha
Summary of the method: as §2

[8] = test system: POLCO; test: Pre-emergence action against POLCO; format: in vivo, Polygonum convolvulus; details: Dosage 320 g/ha, pre-emergence
Summary of the method: as §1

[9] = test system: SETVI; test: Pre-emergence action against SETVI; format: in vivo, Setaria viridis; details: pre-emergence, dosage 320 g/ha, scored visually after 3 weeks vs untreated controls
Summary of the method: as §1

[10] = test system: STEME; test: Post-emergence action against STEME; format: in vivo, Stellaria media; details: post-emergence, dosage 80 g/ha
Summary of the method: as §2

[11] = test system: VIOTR; test: Pre-emergence action against VIOTR; format: in vivo, Viola tricolor; details: Dosage 320 g/ha, pre-emergence
Summary of the method: as §1

[12] = test system: VIOTR; test: Post-emergence action against VIOTR; format: in vivo, Viola tricolor; details: post-emergence, dosage 80 g/ha
Summary of the method: as §2

[13] = test system: HORMU; test: Pre-emergence action against HORMU; format: in vivo, Hordeum murinum; details: Dosage 320 g/ha
Excerpt: (§3) Seeds of monocotyledonous and dicotyledonous weed plants and crop plants are laid out in sandy loam soil in wood-fiber pots and covered with soil. The compounds of the invention, formulated in the form of wettable powders (WP) or as emulsion concentrates (EC), are then applied to the surface of the covering soil in the form of an aqueous suspension or emulsion at a water application rate equating to […], with addition of 0.2% wetting agent. After the treatment, the pots are placed in a greenhouse and kept under good growth conditions for the trial plants. The damage to the test plants is scored visually after a test period of 3 weeks by comparison with untreated controls (herbicidal activity in percent (%): 100% activity=the plants have died, 0% activity=like control plants).

[14] = test system: AVEFA; test: Pre-emergence action against AVEFA; format: in vivo, Avena fatua; details: dosage 320 g/ha, scored visually after 3 weeks vs untreated controls
Summary of the method: as §1

[15] = test system: AMARE; test: Post-emergence action against AMARE; format: in vivo, Amaranthus retroflexus; details: post-emergence, dosage 80 g/ha, visual assessment about 3 weeks after treatment vs untreated controls
Summary of the method: as §2

[16] = test system: VERPE; test: Pre-emergence action against VERPE; format: in vivo, Veronica persica; details: Dosage 320 g/ha, pre-emergence
Summary of the method: as §1

[17] = test system: PHBPU; test: Pre-emergence action against PHBPU; format: in vivo, Pharbitis purpurea; details: Dosage 320 g/ha, pre-emergence
Summary of the method: as §1

[18] = test system: CYPES; test: Pre-emergence action against CYPES; format: in vivo, Cyperus esculentus; details: pre-emergence, dosage 320 g/ha, scored visually after 3 weeks vs untreated controls
Summary of the method: as §1

[19] = test system: PHBPU; test: Post-emergence action against PHBPU; format: in vivo, Pharbitis purpurea; details: post-emergence, dosage 80 g/ha
Summary of the method: as §2

[20] = test system: SETVI; test: Post-emergence action against SETVI; format: in vivo, Setaria viridis; details: post-emergence, dosage 80 g/ha, visual assessment about 3 weeks after treatment vs untreated controls
Summary of the method: as §2

[21] = test system: ALOMY; test: Pre-emergence action against ALOMY; format: in vivo, Alopecurus myosuroides; details: dosage 320 g/ha; pre-emergence; scored visually after 3 weeks vs untreated controls; 100% = plants have died, 0% = like control plants
Summary of the method: as §1

[22] = test system: ECHCG; test: Post-emergence action against ECHCG; format: in vivo, Echinochloa crus-galli; details: post-emergence, dosage 80 g/ha, visual assessment about 3 weeks after treatment vs untreated controls
Summary of the method: as §2

[23] = test system: POLCO; test: Post-emergence action against POLCO; format: in vivo, Polygonum convolvulus; details: post-emergence, dosage 80 g/ha
Summary of the method: as §2

[24] = test system: AMARE; test: Pre-emergence action against AMARE; format: in vivo, Amaranthus retroflexus; details: pre-emergence, dosage 320 g/ha, scored visually after 3 weeks vs untreated controls
Summary of the method: as §1

[25] = test system: LOLRI; test: Pre-emergence action against LOLRI; format: in vivo, Lolium rigidum; details: dosage 320 g/ha, scored visually after 3 weeks vs untreated controls
Excerpt: as §3

[26] = test system: CYPES; test: Post-emergence action against CYPES; format: in vivo, Cyperus esculentus; details: post-emergence, dosage 80 g/ha, visual assessment about 3 weeks after treatment vs untreated controls
Summary of the method: as §2

[27] = test system: AVEFA; test: Post-emergence action against AVEFA; format: in vivo, Avena fatua; details: post-emergence, dosage 80 g/ha, visual assessment about 3 weeks after treatment vs untreated controls
Summary of the method: as §2

[28] = test system: ALOMY; test: Post-emergence action against ALOMY; format: in vivo, Alopecurus myosuroides; details: Dosage 80 g/ha, post-emergence
Summary of the method: as §2

Compound | Pre-emergence action against STEME [1] | Post-emergence action against MATIN (herbicidal action in percent) [2] | Pre-emergence action against MATIN [3] | Post-emergence action against ABUTH (herbicidal action in percent) [4] | Pre-emergence action against ABUTH (herbicidal activity) [5] | Pre-emergence action against ECHCG (herbicidal activity) [6] | Post-emergence action against VERPE [7] | SETVI (Table B8, pre-emergence herbicidal activity) [9] | Post-emergence action against STEME [10] | Pre-emergence action against VIOTR [11] | Post-emergence action against VIOTR [12] | Pre-emergence action against HORMU [13] | Pre-emergence action against AVEFA (herbicidal activity) [14] | Post-emergence action against AMARE (herbicidal action in percent) [15] | Pre-emergence action against VERPE [16] | Pre-emergence action against PHBPU [17] | Post-emergence action against PHBPU [19] | Pre-emergence action against ALOMY (herbicidal activity in percent) [21] | Post-emergence action against ECHCG (herbicidal action in percent) [22] | Pre-emergence action against AMARE (herbicidal activity) [24] | also measured
CCn1nnnc1NC(=O)c1ccc(C(F)F)c(C(C)=O)c1SC [2-65] | 100% | 100% | 90% | 100% | 100% | 100% | 80 | 100% | 100 | 100% | 100 | 80% | 100% | 100% | 100% | 100% | 90 | 100% | 80% | 100% | Pre-emergence action against POLCO [8]: 90%; Pre-emergence action against CYPES (herbicidal activity) [18]: 90%; Post-emergence action against SETVI (herbicidal action in percent) [20]: 100%; Post-emergence action against POLCO [23]: 100
CCCC(=O)c1c(C(F)(F)F)ccc(C(=O)Nc2nnnn2CC)c1Cl [2-139] | 100% | 90% | 100% | 90% | 100% | 100% | – | 100% | 100 | 100% | 100 | 80% | 80% | 100% | 100% | 100% | 100 | 100% | 90% | 100% | Pre-emergence action against LOLRI (herbicidal activity) [25]: 100%; Pre-emergence action against CYPES (herbicidal activity) [18]: 100%
CCn1nnnc1NC(=O)c1ccc(C(F)(F)F)c(C(=O)C(C)C)c1Cl [2-140] | 100% | 90% | 100% | 100% | 100% | 100% | 80 | 100% | 100 | 100% | 100 | – | 80% | – | 100% | 100% | 90 | 90% | 100% | 100% | Post-emergence action against CYPES (herbicidal action in percent) [26]: 80%; Post-emergence action against AVEFA (herbicidal action in percent) [27]: 80%; Pre-emergence action against LOLRI (herbicidal activity) [25]: 90%; Post-emergence action against POLCO [23]: 80; Post-emergence action against ALOMY [28]: 80%
CCCn1nnnc1NC(=O)c1ccc(C(F)F)c(C(C)=O)c1SC [3-65] | 100% | 90% | 100% | 100% | 100% | 100% | 80 | 100% | 100 | 100% | 100 | 100% | 100% | 90% | 100% | 100% | 90 | 80% | 90% | 100% | Pre-emergence action against POLCO [8]: 100%; Post-emergence action against CYPES (herbicidal action in percent) [26]: 80%; Post-emergence action against SETVI (herbicidal action in percent) [20]: 100%; Post-emergence action against POLCO [23]: 80
